Laboratory results as given in PubChem BioAssay AID179 (DTP/NCI, 2004).
Calls of active or inactive are those of the source.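 How the source made its calls: active means compounds giving half or more protection of infected cells from virus-caused growth loss, again on retest; inactive means the rest.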 Where a SMILES comes first, the peptide text is derived from it.

Test system: CEM cells HIV-1 protection, formazan growth assay
Test: NCI AIDS Antiviral Assay
Details: for IC50: measured here: growth of uninfected CEM cells
In short: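 Five concentrations of each compound were applied to infected and uninfected human CEM cells. Protection from HIV-1 was judged from growth measured with a soluble formazan assay.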

Compound | EC50 | IC50 | outcome
Cn1c2ccccc2c2nnc(N/N=C/c3cccs3)nc21 | > 200 µM | > 200 µM | –
NC(=S)Nc1[nH]c(=S)nc2c1SC1=N/C(=C\c3ccco3)C(=O)N12 | > 200 µM | 81.3 µM | –
CSc1c(C(=O)Nc2ccc(C)cc2)c(N)[nH]c(=O)c1C#N | > 95.5 µM | 75.9 µM | –
CCO/N=C(/CC)c1ccc(Br)s1 | > 200 µM | 102 µM | –
CCC(=O)n1c(=O)n(-c2ccc([N+](=O)[O-])cc2)c(=O)n1C(=O)CC | > 200 µM | > 200 µM | –
CC(C)C(=O)/C=C/c1ccc(Cl)cc1 | – | – | inactive
O=C(O)C1NCCc2c1[nH]c1ccccc21 (centres undefined) | – | – | inactive
CC1(C)C2CCC1C(SC(=N)N)C2 (centres undefined) | > 200 µM | 43.7 µM | –
O=c1[nH]c(=O)n(COCc2ccccc2)c2ccccc12 | > 200 µM | 174 µM | –
C[C@@H]1CC[C@]2(C)C3(C)CC[C@]2(OC3=O)[C@@]12CC(c1ccoc1)OC2=O (some centres undefined) | > 200 µM | 33.9 µM | –
O=S1c2ccccc2N=C(c2ccc(Cl)cc2)CC1c1cccs1 (centres undefined) | > 7.41 µM | > 7.41 µM | –
O=C(N=c1ccc2nc(=O)[nH]n(O)c-2c1)C(F)(F)F | > 200 µM | 186 µM | –
CC1=C\[C@@H](O)CC(=O)Cc2nc(co2)C(=O)N2CCC=C2C(=O)O[C@H](C(C)C)[C@H](C)/C=C/C(=O)NC\C=C\1 | > 9.77 µM | > 9.77 µM | –
COC(=O)C([O][Ge]([CH3])([CH3])[CH3])c1ccccc1 (centres undefined) | > 251 µM | > 251 µM | –
CSC(=Nc1ccc(Br)cc1)NC(=O)c1cc([N+](=O)[O-])cc([N+](=O)[O-])c1 | > 200 µM | 34.7 µM | –
O=C1OC2CCCC[C@@H]2C2C[C@]34CCCCC3[C@@H](C(=O)O4)C12 (some centres undefined) | > 23.4 µM | > 23.4 µM | –
CCCCCCCCCCNCCSSCCNC(C)=O | > 200 µM | 5.37 µM | –
CN(C)c1ccc(/C=C(\C#N)c2ccc(F)cc2F)cc1 | > 200 µM | 1.2 µM | –
CC(NC(=O)C(=O)N/N=C1\CC(c2ccccc2)Oc2ccccc21)c1ccccc1 (centres undefined) | – | – | inactive
O=C(/C=C(/SS/C(=C/C(=O)c1ccccc1)c1ccccc1)c1ccccc1)c1ccccc1 | > 200 µM | 2.51 µM | –
CN1CCCC(CNC2C3CC4CC(C3)CC2C4)C1 (centres undefined) | > 138 µM | > 138 µM | –
CCOC(=O)C(C)P(=O)(OC)OC (centres undefined) | > 200 µM | > 200 µM | –
CC(C)OP(=O)(OC(C)C)C(N(C)C)P(=O)(OC(C)C)OC(C)C.[CH3][Sn]([CH3])([Cl])[Cl] | > 302 µM | 17.4 µM | –

Compound | EC50 | IC50 | outcome
O=[N+]([O-])C(=C(N1CCOCC1)N1CCOCC1)/C(Cl)=C(\Cl)Br | > 200 µM | 9.77 µM | –
COc1ccc2oc(=S)[nH]c2c1 | > 200 µM | > 200 µM | –
N#Cc1c(CC(=O)O)cc(=O)n2c1[nH]c1ccccc12 | > 933 µM | 316 µM | –
C=C(C)[C@@H]1CC[C@]2(C)CC[C@]3(C)[C@H](CC[C@@H]4[C@@]5(C)CC[C@H](O)C(C)(C)[C@@H]5CC[C@]43C)[C@@H]12 | > 100 µM | 51.3 µM | –
O=C(O)c1ccccc1/C=C1\Cc2ccccc2C1=O | > 200 µM | 120 µM | –
COc1ccc2nc3cc(Cl)ccc3c(NCCNCCCNC(=O)c3cc(-c4ccccc4)nc4ccccc34)c2c1 | > 20 µM | 1.12 µM | –
C[N+](C)(C)CC1CCCC(C[N+](C)(C)C)C1O (centres undefined) | – | – | inactive
N#Cc1c(N)nc(Nc2cccc3ccccc23)c(C#N)c1C#N | – | – | inactive
O=C1CN(C(=O)c2ccccc2)Cc2[nH]c3ccccc3c21 | – | – | inactive
CCOC(OC1=C(C#N)CCC1)C(C)[Se]c1ccccc1 (centres undefined) | > 49 µM | 26.3 µM | –
NCC1OC(n2cnc3c(N)ncnc32)CC1O (centres undefined) | > 200 µM | > 200 µM | –
Cc1cc(C)cc(NC(N)=S)c1 | > 1000 µM | > 1000 µM | –
O=CC1=CN2C(c3ccoc3)CCC(CO)C2CC1 (centres undefined) | – | – | inactive
CCN(CC)c1c(-c2c(N(CC)CC)c(OC(C)=O)c3sccn3c2=O)c(=O)n2ccsc2c1OC(C)=O | > 200 µM | > 200 µM | –
CN1C(=S)C(c2ccccc2)Sc2ccccc21 (centres undefined) | > 200 µM | 42.7 µM | –
COC1/C=C/OC2(C)Oc3c(C)c(OC(C)=O)c4c(c3C2=O)C(=O)C=C(NC(=O)/C(C)=C\C=C\C(C)C(OC(C)=O)C(C)C(O)C(C)C(OC(C)=O)C1C)C4=O (centres undefined) | > 200 µM | 3.02 µM | –
Clc1ccc(-n2cnn3c(-c4ccccc4)ncc23)cc1 | > 100 µM | > 100 µM | –
COC(=O)[C@@H]1CSC(=S)N1C(=O)C[C@@H]1CC=CC[C@@H]1CC(=O)Sc1ccccc1 | – | – | inactive
Cc1nc(C(N)=S)sc1C(=O)CC(=O)C(=O)Nc1c(C(C)C)cccc1C(C)C | > 302 µM | 30.9 µM | –
Cc1n[nH]c(=O)n1/N=C/c1ccncc1 | > 200 µM | 102 µM | –
Cc1c(Cc2ccc(Cl)cc2)c(=O)[nH]c(=O)n1C | > 97.7 µM | > 97.7 µM | –
O=[N+]([O-])c1ccc(C2CC3(c4ccccc4)ON=C(c4ccccc4)N3c3ccccc3S2)cc1 (centres undefined) | > 200 µM | 102 µM | –
CC(=O)OC/C=C/[C@H](O[Si](C)(C)C(C)(C)C)[C@@H](O)/C=C/COC(C)=O | > 200 µM | 162 µM | –

Compound | EC50 | IC50 | outcome
O=C1c2ccccc2C(c2ccccc2)(N2CCCCC2)N1c1ccccc1 (centres undefined) | > 17.4 µM | > 17.4 µM | –
CC(=O)C(C)(C)CCC(C)(C)C(C)=O | – | – | inactive
CCCNCC(O)COc1ccc2c3c(c(=O)oc2c1)CCC3 (centres undefined) | > 200 µM | 87.1 µM | –
O=S(=O)(O)c1cc(N=Nc2ccc(O)cc2O)ccc1/C=C/c1ccc(N=Nc2ccc(O)cc2O)cc1S(=O)(=O)O | > 70.8 µM | 66.1 µM | –
CC(C)CNC(=S)N/N=C\c1ccncc1 | > 200 µM | 105 µM | –
COc1ccc(C(C)(O)c2cc3ccccc3n2S(=O)(=O)c2ccccc2)cc1 (centres undefined) | > 200 µM | 16.2 µM | –
COc1ccc(/C=C/c2ccc3ccccc3[n+]2C)cc1OC | 0.0631 µM | 52.5 µM | –
COC(=O)c1nc2c(C)c(O)c(O)c([C@H](C)CCC=C(C)C)c2o1 | > 200 µM | 13.5 µM | –
COC(=O)c1cc(C)ccc1C1CN=NC12Cc1c(C)cc(C)cc1C2=O (centres undefined) | > 200 µM | 29.5 µM | –
COC(=O)c1ccc(CSc2ccc(OC)cc2)cc1 | – | – | inactive
CN(C)c1ccc2c(c1)C(=O)N(OS(=O)(=O)c1ccc([N+](=O)[O-])cc1)C2=O | > 47.9 µM | 20.4 µM | –
Cc1ccc(/C=C/C(=O)C(C)C)cc1 | > 200 µM | 70.8 µM | –
Cc1c([O-])c([O-])c(C)c2c1OCO2.[C-]#[O+].[C-]#[O+].[C-]#[O+].[Re].c1ccc([PH+](c2ccccc2)c2ccccc2)cc1 | > 15.1 µM | 6.46 µM | –
CNn1c(C)n[nH]c1=O | > 200 µM | > 200 µM | –
CC(C(=O)ON1C(=O)CCC1=O)c1ccc(C(=O)c2ccccc2)s1 (centres undefined) | > 200 µM | > 200 µM | –
c1ccc(Nc2cc(Nc3ccccc3)cc(Nc3ccccc3)c2)cc1 | > 200 µM | 26.3 µM | –
CN(C)CCSC(=Nc1ccccc1)N1C=COC=C1 | > 871 µM | 44.7 µM | –
O=C1c2cc(Br)ccc2OC2CCON12 (centres undefined) | – | – | inactive
C=CN(c1ccccc1)c1nc(=O)[nH]c(=O)[nH]1 | > 200 µM | > 200 µM | –
O=C1OCCCCCCOC(=O)c2ccccc2SSc2ccccc21 | > 200 µM | > 200 µM | –
CC(C)CCC[C@@H](C)[C@H]1CCC2[C@@H]3CC[C@H]4C[C@@H](CCC=C(c5cc(Cl)c(OCc6ccc(-c7ccc(C(=O)O)cc7)cc6)c(C(=O)O)c5)c5cc(Cl)c(OCc6ccc(-c7ccc(C(=O)O)cc7)cc6)c(C(=O)O)c5)CC[C@]4(C)[C@H]3CC[C@@]21C (some centres undefined) | > 200 µM | 170 µM | –
O=c1oc2ccccc2c(O)c1Cc1ccc(Cc2c(O)c3ccccc3oc2=O)cc1 | > 200 µM | 182 µM | –
CC1(C)SC(C)(C)N2C(=O)[C@H]3N(C(=O)[C@@H]21)C(C)(C)SC3(C)C | > 75.9 µM | > 75.9 µM | –

Compound | EC50 | IC50 | outcome
C#CCOCn1cnc2ncnc(Cl)c21 | > 1120 µM | > 200 µM | –
C[N+]12CC3C(O)CC1CCC32 (centres undefined) | > 1320 µM | > 1320 µM | –
C/C(N)=N/OCc1nc(C)no1 | > 200 µM | > 200 µM | –
CN1c2ccccc2NC(CC(=O)O)C2CC=CN21 (centres undefined) | > 955 µM | 631 µM | –
CCCCCCCCC1=C(OC)C(=O)c2ccc(C)nc2C1=O | – | – | inactive
c1ccc(N=C2SC(=NC3CCCCC3)N(C3CCCCC3)C2=Nc2ccccc2)cc1 | > 200 µM | > 200 µM | –
N#Cc1nc(C2OC(COC(=O)c3ccccc3)C(OC(=O)c3ccccc3)C2OC(=O)c2ccccc2)oc1N (centres undefined) | > 18.2 µM | 9.77 µM | –
CCOC(=O)Cc1nn2c(=O)cc(C)nc2s1 | > 200 µM | > 200 µM | –
Cc1cc(N(C)C)c(C=O)c(C)c1C=O | > 1230 µM | 93.3 µM | –
CCCc1c[nH]c(-c2ccc(-c3cc(CCC)c(C=O)[nH]3)s2)c1 | > 11.5 µM | > 11.5 µM | –
O=C(c1nc2ccccc2[nH]c1=O)C(O)c1ccco1 (centres undefined) | > 794 µM | 380 µM | –
CSc1n[n+]2c(s1)SCCC2 | > 759 µM | 58.9 µM | –
COc1ccc(C(c2c(O)c3ccccc3n(C)c2=O)c2c(O)c3ccccc3n(C)c2=O)cc1 | > 8.13 µM | > 8.13 µM | –
S=c1nc(-c2ccnc(-c3nc(=S)[nH][nH]3)c2)[nH][nH]1 | > 25.7 µM | > 25.7 µM | –
CC1(C)C(=O)N(O)C(C)(C)N1O | > 200 µM | > 200 µM | –
COc1cc(C2c3cc4c(cc3OC(N3CCCCC3)C2C)OCO4)cc(OC)c1O (centres undefined) | > 200 µM | 7.59 µM | –
CON(C)C(C#N)=C(C#N)C#N | > 200 µM | > 200 µM | –
COC1=CC(=O)C(=O)c2ccc(C)nc21 | – | – | inactive
CCC(C)C(NC(=O)C(CC(C)C)NC(=O)C(N)Cc1c[nH]c2ccccc12)C(=O)NC(Cc1c[nH]c2ccccc12)C(=O)O (centres undefined) (H-WLIW-OH; configuration not given here) | > 407 µM | > 407 µM | –
Cn1c(=O)c2nc3c4ccccc4c(=O)n(C)c3nc2n(C)c1=O | – | – | inactive
